This assay concerns the target IDO1 (Homo sapiens, UniProt P14902). Briefly: IDO1 Cellular Assay in HeLa Cells Stimulated with IFNγ. The format is cell-based. The following applies: about 48 hours, read-out: Hela IC50. The procedure:
Biological Assays IDO1 Cellular Assay in HeLa Cells Stimulated with IFNγ
HeLa cells were cultured in complete HeLa culture medium (90% EMEM, 10% heat-inactivated fetal bovine serum) and expanded to about 1×10^9 cells. The cells were then collected and frozen down at 1×10^7 cells/vial in 1 mL frozen medium (90% complete HeLa culture medium, 10% DMSO).
Compounds to be tested were serially diluted in ten 3-fold steps in DMSO starting from 10 mM DMSO stocks in Echo low volume plate(s).
Frozen HeLa cells were thawed and transferred into HeLa assay medium (99% complete HeLa culture medium, 1% Pen/Strep) with 20 mL medium/vial of cells. The cells were spun down at 250 g in a table top centrifuge for 5 min and suspended in same volume of HeLa assay medium. The cells were then counted and adjusted to a density of 2×10^5 cells/mL in HeLa assay medium. Sterile L-tryptophan were added to the cells with final concentration of 300 uM L-tryptophan. A small aliquot (2 mL/plate) of HeLa cells were set aside and were not treated with IFNγ, to serve as the Max-E control.
HeLa cells with and without IFNγ were dispensed to the respective wells of 384-well assay plates containing the compounds. The plates were incubated for about 48 hours at a 37° C., 5% CO2 incubator. Afterwards, 12 μL of 0.5 M methyl isonipecotate in dimethyl sulfoxide were added into each well and the plates were sealed and incubated at 37° C. without CO2 overnight. The plates were centrifuged for 1 min at 200×g. The resulting fluorescence was measured in a Spectramax plate reader (Molecular Devices) with a 400 nm excitation filter and a 510 nm emission filter.
Potencies were calculated by […] least squares fit to the four parameter logistic IC50 equation.
Chain of IDO1 (P14902 whole entry): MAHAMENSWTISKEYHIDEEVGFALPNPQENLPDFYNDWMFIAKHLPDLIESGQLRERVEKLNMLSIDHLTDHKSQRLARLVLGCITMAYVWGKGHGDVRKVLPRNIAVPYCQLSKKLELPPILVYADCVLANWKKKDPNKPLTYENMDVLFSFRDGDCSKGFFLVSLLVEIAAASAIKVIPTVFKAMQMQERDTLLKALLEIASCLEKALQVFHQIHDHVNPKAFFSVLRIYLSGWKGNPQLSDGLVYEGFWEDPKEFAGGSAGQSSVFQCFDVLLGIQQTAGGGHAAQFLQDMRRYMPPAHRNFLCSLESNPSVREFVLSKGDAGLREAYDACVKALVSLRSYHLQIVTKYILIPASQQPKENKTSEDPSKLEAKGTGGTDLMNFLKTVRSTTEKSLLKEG
Regarding `CC(C)CC(=O)N1c2ccc(CNC(=O)c3ccc(Cl)cc3)cc2CCC1(C)C` [Example 13, 4-chloro-N-{[2,2-dimethyl-1-(3-methylbutanoyl)-1,2,3,4-tetrahydroquinolin-6-yl]methyl}benzamide], the IC50 (as a rule, the midpoint of a concentration-inhibition curve) is 0.0986 µM.
On to `O=C(NCc1ccc2c(c1)CCCN2C(=O)OCc1ccccc1)c1ccc(Cl)cc1` [Example 15, benzyl 6-((4-chlorobenzamido)methyl)-3,4-dihydroquinoline-1(2H)-carboxylate], for which the IC50 was determined as 0.0369 µM.
The same measure for `O=C(NCc1ccc2c(c1)CCCN2C(=O)c1cccc(Cl)c1)c1cccc(Cl)c1` [Example 16, 3-chloro-N-((1-(3-chlorobenzoyl)-1,2,3,4-tetrahydroquinolin-6-yl)methyl)benzamide]: 0.118 µM; for `CC(C)CC(=O)NCc1ccc2c(c1)CCCN2C(=O)c1cccc(Cl)c1` [Example 17, N-{[1-(3-chlorobenzene-1-carbonyl)-1,2,3.4-tetrahydroquinolin-6-yl]methyl}-3-methylbutanamide]: 0.702 µM; for `CC(C)c1cc(C(=O)NCc2ccc3c(c2)CCCN3C(=O)c2cccc(Cl)c2)on1` [Example 18, N-{[1-(3-chlorobenzene-1-carbonyl)-1,2,3,4-tetrahydroquinolin-6-yl]methyl}-3-(propan-2-yl)-1,2-oxazole-5-carboxamide]: 0.186 µM.
Take `CC(C)n1cc(C(=O)NCc2ccc3c(c2)CCCN3C(=O)c2cccc(Cl)c2)cn1` [Example 19, N-{[1-(3-chlorobenzene-1-carbonyl)-1,2,3,4-tetrahydroquinolin-6-yl]methyl}-1-(propan-2-yl)-1H-pyrazole-4-carboxamide]: the IC50 was found to be 0.435 µM.
Regarding `Cc1cc(C(=O)NCc2ccc3c(c2)CCCN3C(=O)c2cccc(Cl)c2)on1` [Example 20, N-{[1-(3-chlorobenzene-1-carbonyl)-1,2,3,4-tetrahydroquinolin-6-yl]methyl}-3-methyl-1,2-oxazole-5-carboxamide], the IC50 amounted to 0.0596 µM.
In the case of `Cc1noc(C(=O)NCc2ccc3c(c2)CCCN3C(=O)c2cccc(Cl)c2)n1` [Example 21, N-{[1-(3-chlorobenzene-1-carbonyl)-1,2,3,4-tetrahydroquinolin-6-yl]methyl}-3-methyl-1,2,4-oxadiazole-5-carboxamide], the IC50 was determined as 0.0405 µM.
The same measure for `Cc1cc(C(=O)NCc2ccc3c(c2)CCCN3C(=O)c2cccc(Cl)c2)no1` [Example 22, N-{[1-(3-chlorobenzene-1-carbonyl)-1,2,3,4-tetrahydroquinolin-6-yl]methyl}-5-methyl-1,2-oxazole-3-carboxamide]: 0.045 µM.
In the case of `CCc1nc(C(=O)NCc2ccc3c(c2)CCCN3C(=O)c2cccc(Cl)c2)co1` [Example 23, N-{[1-(3-chlorobenzene-1-carbonyl)-1,2,3,4-tetrahydroquinolin-6-yl]methyl}-2-ethyl-1,3-oxazole-4-carboxamide], the IC50 was 0.0776 µM.
As to `CCn1ccc(C(=O)NCc2ccc3c(c2)CCCN3C(=O)c2cccc(Cl)c2)n1` [Example 24], the IC50 turned out to be 0.0998 µM.
Turning to `Cn1ccc(C(=O)NCc2ccc3c(c2)CCCN3C(=O)c2cccc(Cl)c2)n1` [Example 25, N-{[1-(3-chlorobenzene-1-carbonyl)-1,2,3,4-tetrahydroquinolin-6-yl]methyl}-1-methyl-1H-pyrazole-3-carboxamide], the IC50 is 0.136 µM.
In the case of `CC(C)CC(=O)N1CCCc2cc(CC(=O)Nc3ccc(Cl)cc3)ccc21` [Example 35, N-(4-chlorophenyl)-2-(1-(3-methylbutanoyl)-1,2,3,4-tetrahydroquinolin-6-yl)acetamide], the IC50 was found to be 0.0069 µM.
As for `CC(C(=O)Nc1ccc(F)cc1)c1ccc2c(c1)CCCN2C(=O)C1CC1` (stereo not drawn) [Example 36, 2-[1-(cyclopropanecarbonyl)-1,2,3,4-tetrahydroquinolin-6-yl]-N-(4-fluorophenyl)propanamide], the IC50 worked out at 0.0058 µM.
Take `CC(C(=O)Nc1ccc(F)cc1)c1ccc2c(c1)CCCN2C(=O)C1CCCCO1` (stereo not drawn) [Example 37, N-(4-fluorophenyl)-2-[1-(oxane-2-carbonyl)-1,2,3,4-tetrahydroquinolin-6-yl]propanamide]: the IC50 was determined as 0.0048 µM.
In the case of `CC(C(=O)Nc1ccc(F)cc1)c1ccc2c(c1)CCCN2C(=O)C1CCCO1` (stereo not drawn) [Example 39, N-(4-fluorophenyl)-2-[1-(oxolane-2-carbonyl)-1,2,3,4-tetrahydroquinolin-6-yl]propanamide], the IC50 was 0.0054 µM.
`CC(C)C(=O)N1CCCc2cc(C(C)C(=O)Nc3ccc(F)cc3)ccc21` (stereo not drawn) [Example 40, N-(4-fluorophenyl)-2-[1-(2-methylpropanoyl)-1,2,3,4-tetrahydroquinolin-6-yl]propanamide]: the IC50 was 0.005 µM.
Consider `Cc1cnc(C(=O)N2CCCc3cc(C(C)C(=O)Nc4ccc(F)cc4)ccc32)s1` (stereo not drawn) [Example 41, N-(4-fluorophenyl)-2-[1-(5-methyl-1,3-thiazole-2-carbonyl)-1,2,3,4-tetrahydroquinolin-6-yl]propanamide], for which the IC50 was 0.0046 µM.
With `Cc1n[nH]c(C(=O)N2CCCc3cc(C(C)C(=O)Nc4ccc(F)cc4)ccc32)n1` (stereo not drawn) [Example 42, N-(4-fluorophenyl)-2-[1-(3-methyl-1H-1,2,4-triazole-5-carbonyl)-1,2,3,4-tetrahydroquinolin-6-yl]propanamide] the figure was 0.0384 µM.
With `Cc1noc(C(=O)N2CCCc3cc(C(C)C(=O)Nc4ccc(F)cc4)ccc32)n1` (stereo not drawn) [Example 43, N-(4-fluorophenyl)-2-[1-(3-methyl-1H-1,2,4-oxadiazole-5-carbonyl)-1,2,3,4-tetrahydroquinolin-6-yl]propanamide], the IC50 came to 0.0042 µM.
On to `Cc1nnc(C(=O)N2CCCc3cc(C(C)C(=O)Nc4ccc(F)cc4)ccc32)o1` (stereo not drawn) [Example 44], for which the IC50 was 0.0168 µM.
The same measure for `Cc1nc(C(=O)N2CCCc3cc(C(C)C(=O)Nc4ccc(F)cc4)ccc32)co1` (stereo not drawn) [Example 45, N-(4-fluorophenyl)-2-[1-(2-methyl-1,3-oxazole-4-carbonyl)-1,2,3,4-tetrahydroquinolin-6-yl]propanamide]: 0.0059 µM; for `Cc1cc(C(=O)N2CCCc3cc(C(C)C(=O)Nc4ccc(F)cc4)ccc32)no1` (stereo not drawn) [Example 46, N-(4-fluorophenyl)-2-[1-(5-methyl-1,2-oxazole-3-carbonyl)-1,2,3,4-tetrahydroquinolin-6-yl]propanamide]: 0.0039 µM.
As for `Cc1nc(C(=O)N2CCCc3cc(C(C)C(=O)Nc4ccc(F)cc4)ccc32)no1` (stereo not drawn) [Example 47, N-(4-fluorophenyl)-2-[1-(5-methyl-1,2,4-oxadiazole-3-carbonyl)-1,2,3,4-tetrahydroquinolin-6-yl]propanamide], the IC50 is 0.0034 µM.
In the case of `CC(C(=O)Nc1ccc(F)cc1)c1ccc2c(c1)CCCN2C(=O)c1cnco1` (stereo not drawn) [Example 49, N-(4-fluorophenyl)-2-[1-(1,3-oxazole-5-carbonyl)-1,2,3,4-tetrahydroquinolin-6-yl]propanamide], the half-maximal inhibitory concentration (IC50) came out at 0.03 µM.
Consider `C=CCC(C(=O)Nc1ccc(F)cc1)c1ccc2c(c1)CCCN2C(=O)c1cccc(Cl)c1` (stereo not drawn) [Example 58, 2-[1-(3-chlorobenzene-1-carbonyl)-1,2,3,4-tetrahydroquinolin-6-yl]-N-(4-fluorophenyl)pent-4-enamide], for which the IC50 was found to be 0.0043 µM.
In the case of `COCC(=O)N1CCCc2cc(C(C)C(=O)Nc3ccc(F)cc3)ccc21` (stereo not drawn) [Example 59, N-(4-fluorophenyl)-2-[1-(methoxyacetyl)-1,2,3,4-tetrahydroquinolin-6-yl]propanamide], the IC50 was 0.02 µM.

For the origin of these results see US12275729B2 (Merck Sharp & Dohme LLC, priority 2017, dated 2025).
